Experimental data published in ChEMBL document CHEMBL3885861, “Open TG-GATES”.

Species on record: Rattus norvegicus
Assay: Open TG-GATES - Regimen: Daily Repeat
Type: toxicity, organism-based, Sprague-Dawley
Set-up: regimen Daily Repeat, gender Male, age 6 weeks
Conditions: in vivo, po, 1200 mg/kg, route gavage, dose level Middle; for APTT / Bas / Eos / Fbg / Hb / Ht / Lym / MCH / MCHC / MCV / Mono / Neu / PT / Plat / RBC / Ret / WBC: tissue Blood; for KIDNEY_L / KIDNEY_R / KIDNEY_TOTAL: tissue Kidney; for LIVER: tissue Liver; for A/G / ALP / ALT / AST / BUN / CRE / Ca / Cl / DBIL / GLC / IP / K / LDH / Na / PL / RALB / TBIL / TC / TG / TP / gamma-GTP: tissue Plasma

## CCO [ALCOHOL]
72 h, time 3 day
  TERMINAL_BW: 236.1 g
  APTT: 17.5 s
  Bas: 0%
  Eos: 1.2%
  Fbg: 209 mg/dL
  Hb: 13.9 g/dL
  Ht: 41%
  Lym: 74.6%
  MCH: 21.6 pg
  MCHC: 33.8%
  MCV: 64 fL
  Mono: 5.8%
  Neu: 18%
  PT: 11.3 s
  Plat: 124.3 x10_4/uL
  RBC: 642.4 x10_4/ul
  Ret: 7.7%
  WBC: 106.2 x10_2/uL
  KIDNEY_L: 1.1 g
  KIDNEY_R: 1.1 g
  KIDNEY_TOTAL: 2.1 g
  LIVER: 11.5 g
  A/G: 2.3
  ALP: 854.8 IU/L
  ALT: 38.2 IU/L
  AST: 65 IU/L
  BUN: 20.2 mg/dL
  CRE: 0.6 mg/dL
  Ca: 11.2 mg/dL
  Cl: 104 meq/L
  DBIL: 0.026 mg/dL
  GLC: 208.2 mg/dL
  IP: 9 mg/dL
  K: 4.7 meq/L
  LDH: 113.6 IU/L
  Na: 141 meq/L
  PL: 145.6 mg/dL
  RALB: 4.1 g/dL
  TBIL: 0.3 mg/dL
  TC: 74.2 mg/dL
  TG: 89.2 mg/dL
  TP: 5.8 g/dL
  gamma-GTP: 1.4 IU/L
[…], time 7 day
  TERMINAL_BW: 268.6 g
  APTT: 18.1 s
  Bas: 0%
  Eos: 0.8%
  Fbg: 227.4 mg/dL
  Hb: 14.3 g/dL
  Ht: 42.2%
  Lym: 81.8%
  MCH: 21.3 pg
  MCHC: 33.8%
  MCV: 62.9 fL
  Mono: 6.2%
  Neu: 11.4%
  PT: 11 s
  Plat: 127.6 x10_4/uL
  RBC: 670.6 x10_4/ul
  Ret: 6.1%
  WBC: 112 x10_2/uL
  KIDNEY_L: 1.1 g
  KIDNEY_R: 1.2 g
  KIDNEY_TOTAL: 2.3 g
  LIVER: 13.2 g
  A/G: 2.3
  ALP: 946.6 IU/L
  ALT: 37.4 IU/L
  AST: 64.8 IU/L
  BUN: 20.8 mg/dL
  CRE: 0.5 mg/dL
  Ca: 10.6 mg/dL
  Cl: 103.8 meq/L
  DBIL: 0 mg/dL
  GLC: 202 mg/dL
  IP: 8.4 mg/dL
  K: 4.8 meq/L
  LDH: 108.4 IU/L
  Na: 141 meq/L
  PL: 154.4 mg/dL
  RALB: 4.1 g/dL
  TBIL: 0.3 mg/dL
  TC: 70.6 mg/dL
  TG: 132.4 mg/dL
  TP: 6 g/dL
  gamma-GTP: 1.4 IU/L
[…], time 14 day
  TERMINAL_BW: 302.2 g
  APTT: 18.2 s
  Bas: 0%
  Eos: 1.2%
  Fbg: 227 mg/dL
  Hb: 15.4 g/dL
  Ht: 45.5%
  Lym: 80%
  MCH: 20.6 pg
  MCHC: 33.9%
  MCV: 60.8 fL
  Mono: 5.4%
  Neu: 13.6%
  PT: 11.4 s
  Plat: 115.9 x10_4/uL
  RBC: 749 x10_4/ul
  Ret: 4.5%
  WBC: 119.1 x10_2/uL
  KIDNEY_L: 1.2 g
  KIDNEY_R: 1.2 g
  KIDNEY_TOTAL: 2.4 g
  LIVER: 13.7 g
  A/G: 1.8
  ALP: 821.6 IU/L
  ALT: 33 IU/L
  AST: 62.2 IU/L
  BUN: 19.2 mg/dL
  CRE: 0.5 mg/dL
  Ca: 10.8 mg/dL
  Cl: 105 meq/L
  DBIL: 0.018 mg/dL
  GLC: 205.6 mg/dL
  IP: 7.4 mg/dL
  K: 4.5 meq/L
  LDH: 104.4 IU/L
  Na: 141.8 meq/L
  PL: 159.8 mg/dL
  RALB: 3.9 g/dL
  TBIL: 0.3 mg/dL
  TC: 79 mg/dL
  TG: 114.2 mg/dL
  TP: 6.1 g/dL
  gamma-GTP: 1 IU/L
[…], time 28 day
  TERMINAL_BW: 371.8 g
  APTT: 17.5 s
  Bas: 0%
  Eos: 1.4%
  Fbg: 224 mg/dL
  Hb: 15.4 g/dL
  Ht: 46.3%
  Lym: 73.2%
  MCH: 19.1 pg
  MCHC: 33.3%
  MCV: 57.3 fL
  Mono: 6.6%
  Neu: 18.8%
  PT: 11.1 s
  Plat: 104.5 x10_4/uL
  RBC: 809 x10_4/ul
  Ret: 7%
  WBC: 96.6 x10_2/uL
  KIDNEY_L: 1.3 g
  KIDNEY_R: 1.4 g
  KIDNEY_TOTAL: 2.7 g
  LIVER: 14.7 g
  A/G: 1.5
  ALP: 558.4 IU/L
  ALT: 32.8 IU/L
  AST: 64 IU/L
  BUN: 21.4 mg/dL
  CRE: 0.6 mg/dL
  Ca: 10.2 mg/dL
  Cl: 107.4 meq/L
  DBIL: 0 mg/dL
  GLC: 221.2 mg/dL
  IP: 6.6 mg/dL
  K: 4.4 meq/L
  LDH: 83 IU/L
  Na: 141 meq/L
  PL: 151.4 mg/dL
  RALB: 3.6 g/dL
  TBIL: 0.3 mg/dL
  TC: 70.6 mg/dL
  TG: 181.6 mg/dL
  TP: 6.1 g/dL
  gamma-GTP: 1.4 IU/L
